Ki data for one compound are collected here from BindingDB's records for doi:10.1016/s0028-3908(97)00049-x (Roche Bioscience, 1997).

Structures are written as SMILES.

Targets include Substance-P receptor (Homo sapiens, UniProt P25103); Glutamate receptor 3 (Rattus norvegicus, UniProt P19492); Mu-type opioid receptor (Cavia porcellus, UniProt P97266).
Assay [1] concerns the target Kappa-type opioid receptor (Cavia porcellus, UniProt P41144).
For assay [2], the target named is T1, 5-hydroxytryptamine receptor 1A (Rattus norvegicus, UniProt P19327).
T1 sequence (P19327 whole entry): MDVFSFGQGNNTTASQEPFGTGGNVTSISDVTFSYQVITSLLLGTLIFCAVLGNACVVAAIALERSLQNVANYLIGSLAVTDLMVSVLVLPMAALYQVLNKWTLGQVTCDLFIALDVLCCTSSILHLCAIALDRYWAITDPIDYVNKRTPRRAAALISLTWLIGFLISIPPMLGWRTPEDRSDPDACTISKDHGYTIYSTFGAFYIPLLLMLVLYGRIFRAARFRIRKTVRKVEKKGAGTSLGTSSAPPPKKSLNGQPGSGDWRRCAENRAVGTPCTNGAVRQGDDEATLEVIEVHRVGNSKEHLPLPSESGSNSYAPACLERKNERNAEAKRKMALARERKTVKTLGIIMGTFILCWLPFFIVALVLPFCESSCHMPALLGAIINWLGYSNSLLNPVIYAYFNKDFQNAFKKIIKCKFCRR

Assay [3] concerns the target T2, Alpha-1B adrenergic receptor (Rattus norvegicus, UniProt P15823).
T2 sequence (P15823 whole entry): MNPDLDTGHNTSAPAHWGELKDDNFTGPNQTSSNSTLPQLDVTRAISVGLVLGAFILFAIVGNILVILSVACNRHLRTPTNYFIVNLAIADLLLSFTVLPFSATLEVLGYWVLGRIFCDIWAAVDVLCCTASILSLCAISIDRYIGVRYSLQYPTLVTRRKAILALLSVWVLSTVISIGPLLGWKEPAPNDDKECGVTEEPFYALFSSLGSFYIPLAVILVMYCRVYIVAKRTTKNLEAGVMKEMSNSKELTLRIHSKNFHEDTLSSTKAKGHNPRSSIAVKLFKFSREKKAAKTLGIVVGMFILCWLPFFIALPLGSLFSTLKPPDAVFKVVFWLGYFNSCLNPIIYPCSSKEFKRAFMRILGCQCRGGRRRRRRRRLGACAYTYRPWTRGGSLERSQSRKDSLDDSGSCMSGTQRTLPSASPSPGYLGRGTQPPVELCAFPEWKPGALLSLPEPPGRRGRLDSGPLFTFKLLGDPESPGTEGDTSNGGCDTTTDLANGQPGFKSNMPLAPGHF

Assay [4] concerns the target T3, 5-hydroxytryptamine receptor 3A (Mus musculus, UniProt P23979).
T3 sequence (P23979 whole entry): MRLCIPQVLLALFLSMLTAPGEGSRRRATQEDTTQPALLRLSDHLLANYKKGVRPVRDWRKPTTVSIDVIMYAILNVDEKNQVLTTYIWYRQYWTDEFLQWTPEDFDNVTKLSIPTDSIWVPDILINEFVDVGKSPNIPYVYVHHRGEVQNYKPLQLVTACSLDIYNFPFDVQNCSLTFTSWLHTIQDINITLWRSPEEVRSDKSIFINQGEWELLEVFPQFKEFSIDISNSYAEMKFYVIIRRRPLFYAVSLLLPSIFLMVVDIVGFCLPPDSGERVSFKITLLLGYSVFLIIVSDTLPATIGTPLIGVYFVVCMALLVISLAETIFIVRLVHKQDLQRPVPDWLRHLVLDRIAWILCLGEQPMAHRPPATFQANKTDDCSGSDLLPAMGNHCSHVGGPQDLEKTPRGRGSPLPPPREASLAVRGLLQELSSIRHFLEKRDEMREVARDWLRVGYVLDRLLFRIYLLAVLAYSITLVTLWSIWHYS

Assay [5] addresses Gamma-aminobutyric acid receptor subunit alpha-1 (Rattus norvegicus, UniProt P62813).
For assay [6], the target named is 5-hydroxytryptamine receptor 7 (Cavia porcellus, UniProt P50407).
The target in assay [7] is T4, Alpha-2A adrenergic receptor (Oryctolagus cuniculus, UniProt Q5ZQK3).
T4 sequence (Q5ZQK3 whole entry): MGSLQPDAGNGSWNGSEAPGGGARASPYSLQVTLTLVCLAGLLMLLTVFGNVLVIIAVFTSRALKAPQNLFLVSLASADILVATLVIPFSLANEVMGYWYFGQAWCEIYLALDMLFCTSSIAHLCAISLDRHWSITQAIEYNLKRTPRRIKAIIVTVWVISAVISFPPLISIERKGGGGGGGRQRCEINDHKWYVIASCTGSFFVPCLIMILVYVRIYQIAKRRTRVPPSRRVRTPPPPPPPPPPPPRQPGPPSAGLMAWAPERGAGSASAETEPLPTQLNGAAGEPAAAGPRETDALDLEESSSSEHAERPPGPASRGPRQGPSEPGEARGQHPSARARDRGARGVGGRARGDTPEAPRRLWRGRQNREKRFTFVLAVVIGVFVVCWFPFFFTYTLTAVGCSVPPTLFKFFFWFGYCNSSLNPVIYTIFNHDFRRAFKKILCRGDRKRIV

Assay [8] has as its target T5, Alpha-2B adrenergic receptor (Rattus norvegicus, UniProt P19328).
T5 sequence (P19328 whole entry): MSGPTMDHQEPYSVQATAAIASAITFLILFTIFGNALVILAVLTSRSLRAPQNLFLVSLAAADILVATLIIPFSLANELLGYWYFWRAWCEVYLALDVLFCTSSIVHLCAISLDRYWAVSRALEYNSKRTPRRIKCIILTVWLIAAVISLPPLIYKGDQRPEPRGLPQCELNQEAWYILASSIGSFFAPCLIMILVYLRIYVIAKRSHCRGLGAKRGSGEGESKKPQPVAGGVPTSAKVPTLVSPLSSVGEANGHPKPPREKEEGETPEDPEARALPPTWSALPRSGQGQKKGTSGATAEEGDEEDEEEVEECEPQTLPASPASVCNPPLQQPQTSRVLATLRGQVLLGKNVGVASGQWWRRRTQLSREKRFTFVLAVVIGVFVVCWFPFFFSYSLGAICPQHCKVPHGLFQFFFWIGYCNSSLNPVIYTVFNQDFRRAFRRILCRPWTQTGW

For assay [9], the target named is T6, Beta-1 adrenergic receptor (Oryctolagus cuniculus, UniProt A0A4Y6F0G0).
T6 sequence (A0A4Y6F0G0 whole entry): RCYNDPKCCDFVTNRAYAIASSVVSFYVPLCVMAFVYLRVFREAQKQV

For assay [10], the target named is T7, Muscarinic acetylcholine receptor M2 (Rattus norvegicus, UniProt P10980).
T7 sequence (P10980 whole entry): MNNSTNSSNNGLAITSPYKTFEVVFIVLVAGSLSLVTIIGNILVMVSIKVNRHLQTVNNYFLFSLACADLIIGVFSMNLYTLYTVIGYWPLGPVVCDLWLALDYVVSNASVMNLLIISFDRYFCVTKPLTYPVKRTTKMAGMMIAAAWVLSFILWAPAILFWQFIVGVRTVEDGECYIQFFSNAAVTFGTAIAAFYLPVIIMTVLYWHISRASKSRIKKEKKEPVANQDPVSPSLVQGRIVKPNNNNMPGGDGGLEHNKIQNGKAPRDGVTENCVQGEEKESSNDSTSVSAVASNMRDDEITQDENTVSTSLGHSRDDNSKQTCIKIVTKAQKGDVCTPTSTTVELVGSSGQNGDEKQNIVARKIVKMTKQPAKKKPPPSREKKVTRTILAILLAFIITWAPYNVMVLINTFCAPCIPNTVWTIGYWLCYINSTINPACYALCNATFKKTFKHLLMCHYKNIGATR

Assay [11] deals with T8, Muscarinic acetylcholine receptor M1 (Rattus norvegicus, UniProt P08482).
T8 sequence (P08482 whole entry): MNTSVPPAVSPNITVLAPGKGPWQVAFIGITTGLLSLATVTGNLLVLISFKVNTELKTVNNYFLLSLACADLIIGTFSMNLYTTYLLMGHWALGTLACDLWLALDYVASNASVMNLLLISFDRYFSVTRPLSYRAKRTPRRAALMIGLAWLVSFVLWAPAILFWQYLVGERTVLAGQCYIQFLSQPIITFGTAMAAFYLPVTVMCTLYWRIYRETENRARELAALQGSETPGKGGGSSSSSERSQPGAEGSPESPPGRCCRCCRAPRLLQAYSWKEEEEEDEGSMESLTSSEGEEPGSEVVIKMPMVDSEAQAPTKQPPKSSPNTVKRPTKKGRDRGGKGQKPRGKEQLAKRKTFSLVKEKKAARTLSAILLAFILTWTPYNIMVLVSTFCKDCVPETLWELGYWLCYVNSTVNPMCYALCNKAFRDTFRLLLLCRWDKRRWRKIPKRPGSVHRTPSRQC

In assay [12] the target is Muscarinic acetylcholine receptor M3 (Rattus norvegicus, UniProt P08483).
In assay [13] the target is Glutamate receptor ionotropic, NMDA 1 (Rattus norvegicus, UniProt P35439).
In assay [14] the target is Beta-2 adrenergic receptor (Rattus norvegicus, UniProt P10608).
Sequence of Beta-2 adrenergic receptor (P10608 whole entry): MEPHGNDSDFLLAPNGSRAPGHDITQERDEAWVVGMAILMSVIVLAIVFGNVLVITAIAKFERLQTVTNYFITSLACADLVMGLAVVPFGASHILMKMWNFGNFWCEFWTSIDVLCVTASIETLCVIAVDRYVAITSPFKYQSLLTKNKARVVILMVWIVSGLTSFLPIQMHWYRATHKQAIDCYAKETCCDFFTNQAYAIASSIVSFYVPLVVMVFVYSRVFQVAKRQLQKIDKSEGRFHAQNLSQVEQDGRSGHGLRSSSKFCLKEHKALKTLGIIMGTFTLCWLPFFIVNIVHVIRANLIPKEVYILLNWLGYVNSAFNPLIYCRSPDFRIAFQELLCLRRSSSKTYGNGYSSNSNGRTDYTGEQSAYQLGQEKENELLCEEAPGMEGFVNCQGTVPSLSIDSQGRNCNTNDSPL

Sequence of Kappa-type opioid receptor (P41144 whole entry): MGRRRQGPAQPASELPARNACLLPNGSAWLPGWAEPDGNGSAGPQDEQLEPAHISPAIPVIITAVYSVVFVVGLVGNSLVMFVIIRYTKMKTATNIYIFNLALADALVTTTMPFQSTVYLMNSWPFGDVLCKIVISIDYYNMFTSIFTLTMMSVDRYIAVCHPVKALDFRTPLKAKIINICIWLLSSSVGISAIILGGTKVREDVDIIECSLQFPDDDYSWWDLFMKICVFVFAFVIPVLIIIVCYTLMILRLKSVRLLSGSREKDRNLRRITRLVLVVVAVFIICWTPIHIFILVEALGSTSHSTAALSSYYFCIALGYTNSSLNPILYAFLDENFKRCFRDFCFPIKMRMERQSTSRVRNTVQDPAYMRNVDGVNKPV
Sequence of Glutamate receptor 3 (P19492 whole entry): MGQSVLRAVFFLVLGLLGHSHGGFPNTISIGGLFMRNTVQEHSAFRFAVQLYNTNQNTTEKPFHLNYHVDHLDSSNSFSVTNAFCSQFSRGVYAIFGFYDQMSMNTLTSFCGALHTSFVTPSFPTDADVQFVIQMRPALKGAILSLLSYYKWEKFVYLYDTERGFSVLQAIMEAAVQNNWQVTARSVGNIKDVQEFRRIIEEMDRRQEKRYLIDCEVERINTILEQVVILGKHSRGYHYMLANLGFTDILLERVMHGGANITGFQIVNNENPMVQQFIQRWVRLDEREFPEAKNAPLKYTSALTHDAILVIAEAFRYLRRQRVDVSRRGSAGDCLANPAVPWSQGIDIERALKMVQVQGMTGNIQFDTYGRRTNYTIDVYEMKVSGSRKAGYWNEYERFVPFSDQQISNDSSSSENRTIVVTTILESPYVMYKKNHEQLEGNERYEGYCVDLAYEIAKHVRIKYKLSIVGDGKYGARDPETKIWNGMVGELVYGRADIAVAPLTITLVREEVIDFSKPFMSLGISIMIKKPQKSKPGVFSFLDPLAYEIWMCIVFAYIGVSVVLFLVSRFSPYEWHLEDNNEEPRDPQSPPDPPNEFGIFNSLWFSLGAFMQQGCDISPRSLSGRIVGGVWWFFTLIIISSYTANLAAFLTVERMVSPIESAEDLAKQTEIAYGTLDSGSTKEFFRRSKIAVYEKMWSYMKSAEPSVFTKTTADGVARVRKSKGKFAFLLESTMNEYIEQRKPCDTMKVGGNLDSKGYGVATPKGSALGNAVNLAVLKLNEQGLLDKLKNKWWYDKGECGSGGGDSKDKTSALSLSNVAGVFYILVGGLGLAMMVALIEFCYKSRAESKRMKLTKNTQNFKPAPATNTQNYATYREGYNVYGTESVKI
Sequence of Gamma-aminobutyric acid receptor subunit alpha-1 (P62813 whole entry): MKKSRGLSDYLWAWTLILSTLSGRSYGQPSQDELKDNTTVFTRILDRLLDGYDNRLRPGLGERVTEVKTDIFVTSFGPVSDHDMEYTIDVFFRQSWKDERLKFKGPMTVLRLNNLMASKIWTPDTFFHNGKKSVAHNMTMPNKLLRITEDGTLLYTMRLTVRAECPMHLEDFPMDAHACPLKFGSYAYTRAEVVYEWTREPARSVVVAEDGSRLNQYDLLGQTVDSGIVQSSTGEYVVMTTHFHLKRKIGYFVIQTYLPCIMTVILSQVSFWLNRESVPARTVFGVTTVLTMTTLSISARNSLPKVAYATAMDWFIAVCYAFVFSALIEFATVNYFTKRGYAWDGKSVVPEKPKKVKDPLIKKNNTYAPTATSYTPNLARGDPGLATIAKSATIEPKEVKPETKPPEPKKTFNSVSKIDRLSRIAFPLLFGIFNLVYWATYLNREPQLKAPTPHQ
Sequence of 5-hydroxytryptamine receptor 7 (P50407 whole entry): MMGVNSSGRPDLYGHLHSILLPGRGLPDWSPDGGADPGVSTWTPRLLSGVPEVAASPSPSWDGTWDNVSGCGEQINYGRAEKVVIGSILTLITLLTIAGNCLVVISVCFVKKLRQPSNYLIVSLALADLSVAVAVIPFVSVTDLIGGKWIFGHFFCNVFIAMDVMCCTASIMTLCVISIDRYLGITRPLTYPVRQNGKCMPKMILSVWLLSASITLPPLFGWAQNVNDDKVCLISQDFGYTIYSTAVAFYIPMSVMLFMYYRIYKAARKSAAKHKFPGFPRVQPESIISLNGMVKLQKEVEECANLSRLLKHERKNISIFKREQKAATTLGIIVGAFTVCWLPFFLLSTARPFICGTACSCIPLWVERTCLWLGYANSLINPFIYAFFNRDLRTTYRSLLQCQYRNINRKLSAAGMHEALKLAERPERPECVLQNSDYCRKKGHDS
Sequence of Mu-type opioid receptor (P97266 whole entry): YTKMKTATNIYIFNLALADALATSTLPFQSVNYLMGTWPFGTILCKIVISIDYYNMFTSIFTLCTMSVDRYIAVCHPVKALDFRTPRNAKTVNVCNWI
Sequence of Muscarinic acetylcholine receptor M3 (P08483 whole entry): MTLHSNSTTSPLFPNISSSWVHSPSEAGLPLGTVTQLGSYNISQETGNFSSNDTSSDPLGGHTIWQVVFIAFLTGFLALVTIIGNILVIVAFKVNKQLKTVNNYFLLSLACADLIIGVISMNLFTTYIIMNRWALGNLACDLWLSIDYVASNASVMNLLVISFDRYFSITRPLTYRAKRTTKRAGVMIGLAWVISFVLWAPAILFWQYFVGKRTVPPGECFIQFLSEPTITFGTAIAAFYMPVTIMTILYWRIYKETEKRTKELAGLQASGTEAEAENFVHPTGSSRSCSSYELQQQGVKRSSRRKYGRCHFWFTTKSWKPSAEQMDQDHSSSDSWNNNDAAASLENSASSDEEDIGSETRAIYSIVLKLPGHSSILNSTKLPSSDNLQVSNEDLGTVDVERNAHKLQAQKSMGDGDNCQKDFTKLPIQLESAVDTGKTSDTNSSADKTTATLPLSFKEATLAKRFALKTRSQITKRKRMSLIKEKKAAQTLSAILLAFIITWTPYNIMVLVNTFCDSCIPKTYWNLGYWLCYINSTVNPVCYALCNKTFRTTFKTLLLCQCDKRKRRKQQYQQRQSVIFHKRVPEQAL
Sequence of Substance-P receptor (P25103 whole entry): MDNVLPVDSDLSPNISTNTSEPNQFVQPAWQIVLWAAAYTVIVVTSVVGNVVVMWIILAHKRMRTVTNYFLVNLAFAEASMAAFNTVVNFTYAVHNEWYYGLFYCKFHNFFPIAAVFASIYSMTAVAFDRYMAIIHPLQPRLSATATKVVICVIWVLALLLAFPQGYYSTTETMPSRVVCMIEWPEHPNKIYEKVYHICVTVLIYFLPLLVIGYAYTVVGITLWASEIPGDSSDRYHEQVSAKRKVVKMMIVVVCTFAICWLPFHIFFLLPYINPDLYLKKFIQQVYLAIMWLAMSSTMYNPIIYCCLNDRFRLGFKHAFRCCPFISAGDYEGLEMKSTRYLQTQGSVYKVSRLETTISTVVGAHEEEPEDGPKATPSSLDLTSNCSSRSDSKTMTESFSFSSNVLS

With `COc1cc(OC)c(C(=O)CCCCN2CCC3(CC2)NC(=O)NC3=O)cc1NS(=O)(=O)c1ccc(C(F)(F)F)cc1` [N-[5-[5-(2,4-Dioxo-1,3,8-triazaspiro[4.5]decan-8-yl)-1-oxopentyl]-2,4-dimethoxyphenyl]-4-(trifluoromethyl)benzenesulfonamide], the Ki (on Substance-P receptor; in assay [1]; in assay [2]; in [3]; in [4]; in assay [5]) was more than 10 µM in each case. Besides, the inhibition constant (Ki) (as a rule, the dissociation constant of the complex between target and ligand, obtained from inhibition or displacement) in assay [6] was more than 10 µM; in [7], 0.316 µM; in assay [8], more than 10 µM; in assay [9], more than 10 µM; in assay [10], more than 10 µM; in assay [11] it was more than 10 µM. Also, the Ki (in assay [12]; on Glutamate receptor 3; in assay [13]; on Mu-type opioid receptor; in assay [14]) was more than 10 µM in each case.
